What was measured:
[1] = tested on: cultured neurocytes of rat fetal cerebral cortex; experiment: Activity of accelerating synapse formation (intracellular calcium ion level, fura-2); assay type: cell-based; details: relative value, L-PDMP regarded as 100; compound 20 μM; assay on 10th day of culture
Protocol: The activity of accelerating synapse formation was determined by measuring change of an intracellular calcium ion level resulted from the synchronized spontaneous ignition of neurocytes which is considered to show synapse activities by means of an intracellular calcium ion multipoint observation system using a calcium ion fluorescence indicator, fura-2.
Concretely, rat fetuses at the 18th day of pregnancy were taken out from Wistar rats (available from Japan SLC), and cerebral cortices of the fetuses were taken out and cut into small pieces. After having been treated with papain (manufactured by Worthington Biochemical) at 37° C. for 30 minutes, the pieces were suspended into a Dulbecco modified Eagle's medium containing 5% bovine neonatal serum and 5% equine serum and the cortices were dissociated into single cells with Cell Striner (70 μm, Falcon). Then, the cells were inoculated into a flexiperm plate coated with 0.5% polyethyleneimine (1.0×10^6 cells/500 μl/well), and was cultured in 7% CO2 incubator at 37° C. The medium was exchanged on 2nd, 5th, and 8th days after the culture had been started. The activity of the compound of the present invention was measured using the primary culture. The compound was added at the time when the medium was exchanged and the concentration of the compound was maintained to be 20 μM. Assay was carried out on 10th day after the culture had been started.
(2) Measurement of Activity of Accelerating Synapse Formation
Concretely, after the medium of each well where cells were cultured was substituted with basic salt solution (BSS), 3 μl of a DMSO solution (1 mg/ml) of a calcium ion fluorescence indicator fura-2 was added, and the whole was kept at 37° C. for 1 hour.

[2] = tested on: enzyme for ganglioside GM3 synthesis, mouse B16 melanoma cell; experiment: Activity of enzyme for ganglioside GM3 synthesis (14C-Gal incorporated in total lipid fraction); assay type: cell-based; details: relative value, control regarded as 100; test compound 24 μM, 24 hours; 14C-Gal incorporation
Protocol: The gangliosides produced by mouse B16 melanoma cell are almost composed of ganglioside GM3. Therefore, the activity of the enzyme for ganglioside GM3 synthesis can be determined conveniently by measuring the amount of ^14C-Gal incorporated in a total lipid-extracted fraction through a liquid layer partition method.
A liquid where the cells of mouse B16 melanoma were suspended was prepared with Dulbecco modified Eagle's medium containing 10% bovine fetal serum, inoculated into a 12-well plate in an amount of 2.0×10^5 cells/ml/well, and cultured in 5% CO2 incubator at 37° C. The treatment with a test compound (24 μM) and the addition of ^14C-Gal (22.2 kBq/11.7 nmol/6 μl/well) were started through the exchange of total amount of the medium 24 hours after the culture was started. Twenty-four hours after the treatment with the test compound was started, the culture mixture was treated with PBS containing 0.02% EDTA and PBS containing 0.25% trypsin successively to recover the cells.
Then, a mixed solvent of chloroform:methanol=2:1 (3 ml) was added to the cell pellet and, after the subjection to an ultrasonication for 30 minutes, the supernatant was recovered. Furthermore, a mixed solvent of chloroform:methanol=1:1 (3 ml) was added to the residual pellet after the recovery of the supernatant, and a similar operation was carried out. The resulting supernatant was combined with the first supernatant and the whole was evaporated to dryness under a nitrogen stream. A desalinated water (1.0 ml) was added to the total lipid-extracted fraction. After having been subjected to an ultrasonication for 1 minute, the mixture was transferred into a dialysis tube and dialyzed against water for 2 days. The sample after the dialysis was transferred into a vial for liquid scintillation counter and, after the addition of scintillator, the activity of incorporating ^14C-Gal was measured on scintillation counter.
The values of activity of the compounds of the present invention are shown as relative values obtained by calculation on the basis that the value of a control (a group where no test compound was added) is regarded as 100 in Table 3 below.

[3] = Tissue distribution: concentration in plasma and skeletal muscle after oral or intravenous administration; assay type: in vivo; details: rat
Protocol: Tissue distribution of the compound in Example 19 was compared with that of L-PDMP using 6-8 week old Wistar male rats.
As oral administration, a physiological saline containing 20 mg/ml of a test substance was administered at 100 mg/5 ml/kg, and as intravenous administration, a physiological saline containing 1.25 mg/ml of a test substance was administered to the cervical vein at 5 mg/4 ml/kg.
After the predetermined time had passed since the above administration, blood was collected from the rat cervical vein, a 3.8% sodium citrate solution was added thereto at 1/10 volume, followed by centrifugation at 3,000 rpm for 15 minutes to obtain the supernatant as a plasma sample.
Also, after the predetermined time had passed since the above administration, the skeletal muscle was collected from the femoral region of both hind legs, ice water was added thereto at 4 ml/g tissue, followed by homogenization, and the same volume of acetonitrile was added thereto, followed by vigorously stirring and centrifugation at 4000 rpm for 10 minutes to obtain the supernatant as a skeletal muscle sample.
The plasma and skeletal muscle samples were extracted by OASIS HLB solid phase extraction column (manufactured by Waters), and the concentration of the test compound in the plasma and the muscle was determined by high performance liquid chromatography (HPLC). The conditions of HPLC analysis were as follows:
Detection wavelength: 218 nm
Column: DAISO PACK SP-120-5-ODS-BP
Column temperature: 40° C.
Mobile phase: 0.1% trifluoroacetic acid solution:methanol=36:64 (for L-PDMP); 0.1% trifluoroacetic acid solution:methanol=48:52 (for the compound in Example 19)
The concentrations in the plasma and skeletal muscle of the compound in Example 19 and L-PDMP after the predetermined time has been passed since the administration of the test compounds are shown in Tables 4-6 below. The values are the mean values of at least two test samples. Specifically, Table 4, Table 5, and Table 6 show the concentrations in the plasma after the oral administration of 100 mg/kg, the concentrations in the skeletal muscle after the oral administration of 100 mg/kg, and the concentrations in the plasma after the intravenous administration of 5 mg/kg, respectively.

Row | Molecule | Activity of synapse formation [1] | also measured
1 | N[C@@H](CCCCNC(=O)CCCCCCCCC(=O)N[C@@H](CN1CCOCC1)[C@@H](O)c1ccccc1)C(=O)O [Example 27, (1S,2S,16S)-2-(16-amino-11-aza-10-oxo-16-carboxyhexadecanoyl)amino-3-morpholino-1-phenyl-1-propanol] | 100.0 | –
2 | CCNC(=O)CCCCC(=O)N[C@@H](CN1CCOCC1)[C@@H](O)c1ccccc1 [Example 11, (1S,2S)-2-(5-ethylcarbamoyl)pentanoylamino-3-morpholino-1-phenyl-1-propanol] | 93.3 | –
3 | CC(=O)CCCCCC(=O)N[C@@H](CN1CCOCC1)[C@@H](O)c1ccccc1 [Example 22, (1S,2S)-2-(7-oxooctanoyl)amino-3-morpholino-1-phenyl-1-propanol] | 88.3 | –
4 | O=C(CCCCCCCCCO)N[C@@H](CN1CCOCC1)[C@@H](O)c1ccccc1 [Example 23, (1S,2S) -2-(10-hydroxydecanoyl) amino-3-morpholino-1-phenyl-1-propanol] | 85.8 | –
5 | O=C(CNC(=O)OCc1ccccc1)NCC(=O)N[C@@H](CN1CCOCC1)[C@@H](O)c1ccccc1 [Example 2] | – | Activity of accelerating glycolipid biosynthesis (Test Example 2) [2]: 130.9
6 | CCCCCCNC(=O)C1CCC(C(=O)N[C@@H](CN2CCOCC2)[C@@H](O)c2ccccc2)CC1 (stereo partly drawn) [Example 17, (1S,2S)-2-(cyclohexane-4-hexylcarbamoyl-1-carbonyl)amino-3-morpholino-1-phenyl-1-propanol] | 90.0 | –
7 | O=C(CNC(=O)OCc1ccccc1)N[C@@H](CN1CCOCC1)[C@@H](O)c1ccccc1 [Example 1] | – | Activity of accelerating glycolipid biosynthesis (Test Example 2) [2]: 85.2
8 | (1S,2S)-2-(5-cyclohexylcarbamoyl)pentanoylamino-3-morpholino-1-phenyl-1-propanol [Example 12] | 80.0 | –
9 | CCCCOCCOCC(=O)N[C@@H](CN1CCOCC1)[C@@H](O)c1ccccc1 [Example 19, (1S,2S)-2-(3,6-dioxadecanoyl)amino-3-morpholino-1-phenyl-1-propanol] | 90.8 | concentration at 10 min ([3]; male, Wistar, plasma, intravenous administration of 5 mg/kg, 10 min): 2240 ng/mL; concentration at 25 min ([3]; male, Wistar, plasma, intravenous administration of 5 mg/kg, 25 min): 560 ng/mL; concentration at 5 min ([3]; male, Wistar, plasma, oral administration of 100 mg/kg, 5 min): 2620 ng/mL; concentration at 15 min ([3]; male, Wistar, plasma, oral administration of 100 mg/kg, 15 min): 8660 ng/mL; concentration at 30 min ([3]; male, Wistar, plasma, oral administration of 100 mg/kg, 30 min): 6140 ng/mL; concentration at 60 min ([3]; male, Wistar, plasma, oral administration of 100 mg/kg, 60 min): 950 ng/mL; retention in plasma and skeletal muscle compared with L-PDMP ([3]; in words): kept in the plasma and skeletal muscle for a longer time; tissue distribution compared with L-PDMP ([3]; in words): higher tissue distribution than L-PDMP
10 | (1S,2S)-2-(5-hexylcarbamoyl)pentanoylamino-3-morpholino-1-phenyl-1-propanol [Example 13] | 95.0 | –
11 | CCCCCCOCCOCC(=O)N[C@@H](CN1CCOCC1)[C@@H](O)c1ccccc1 [Example 21, (1S,2S)-2-(3,6-dioxadodecanoyl)amino-3-morpholino-1-phenyl-1-propanol] | 97.5 | –
12 | CCCCCCNC(=O)CCCCCCCCC(=O)N[C@@H](CN1CCOCC1)[C@@H](O)c1ccccc1 [Example 15, (1S,2S)-2-(9-hexylcarbamoyl)nonanoylamino-3-morpholino-1-phenyl-1-propanol] | 90.0 | –
13 | CCOC(=O)CCCCC(=O)N[C@@H](CN1CCOCC1)[C@@H](O)c1ccccc1 [Example 6, (1S,2S)-2-ethoxyhexanedioylamino-3-morpholino-1-phenyl-1-propanol] | 87.5 | –
14 | CC(=O)NC1C(O)CC(CCCCCCCCC(=O)N[C@@H](CN2CCOCC2)[C@@H](O)c2ccccc2)(C(=O)O)OC1C(O)C(O)CO (stereo partly drawn) [Example 28, (1S,2S)-2-(9-sialylnonanoyl)amino-3-morpholino-1-phenyl-1-propanol] | 95.8 | –
15 | N[C@@H](CCCCNC(=O)CCCCC(=O)N[C@@H](CN1CCOCC1)[C@@H](O)c1ccccc1)C(=O)O [Example 26, (1S,2S,12S)-2-(12-amino-7-aza-6-oxo-12-carboxydodecanoyl)amino-3-morpholino-1-phenyl-1-propanol] | 95.0 | –
16 | CCCCN(C)C(=O)CCC(=O)N[C@@H](CN1CCOCC1)[C@@H](O)c1ccccc1 [Example 10, (1S,2S)-2-(N-butyl-N-methylamino)butanedioylamino-3-morpholino-1-phenyl-1-propanol] | 91.7 | –
17 | CCCCCC(=O)NCC(=O)N[C@@H](CN1CCOCC1)[C@@H](O)c1ccccc1 [Example 4, (1S,2S)-2-(n-hexanoyl)glycylamino-3-morpholino-1-phenyl-1-propanol] | – | Activity of accelerating glycolipid biosynthesis (Test Example 2) [2]: 71.3
18 | CCCCNC(=O)CCCCCCCCC(=O)N[C@@H](CN1CCOCC1)[C@@H](O)c1ccccc1 [Example 14, (1S,2S)-2-(9-butylcarbamoyl)nonanoylamino-3-morpholino-1-phenyl-1-propanol] | 94.2 | –
19 | CCCCOC(=O)NCC(=O)N[C@@H](CN1CCOCC1)[C@@H](O)c1ccccc1 [Example 3] | – | Activity of accelerating glycolipid biosynthesis (Test Example 2) [2]: 98.6

Source: patent US6407064B2, “Aminoalcohol derivative and medicament comprising the same” (Seikagaku Corporation, priority 1999, dated 2002)
